Assay results from US6355799B1, “Substituted benzene compounds, process for their preparation, and herbicidal and defoliant compositions containing them” (ISK Americas Incorporated, priority 1997, dated 2002).

What was measured:
Type in all cases: in vivo
[1] = system: redroot pigweed (Amaranthus retroflexus, AMARE); test: Pre-emerge test, greenhouse herbicide activity screening; settings: pre-emerge, 14 days after application, rating scale 0-100
Procedure, shortened: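 Plants grown in 10 cm pots of sandy loam mix received acetone-dissolved compounds through a moving flat-fan nozzle. Doses ranged from 15 to 1000 g ai/ha. Pre-emerge pots were seeded one day earlier, post-emerge pots 8–21 days earlier. Fourteen days on, each pot was graded 0–100 for damage.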

[2] = system: upland rice (Oryza sp., var. Tebonnet, RICE); test: Post-emerge test, crop safety; settings: post-emerge, 14 days after application, rating scale 0-100
Procedure, shortened: (§1)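 Visual ratings on a 0-100 scale (0 no damage, 100 all plants dead) were taken at 14 days after treatment. Rates of 15-1000 g ai/ha in acetone, 187 l/ha, were sprayed onto soil one day after planting (pre-emerge) or onto 2-3 leaf plants with 0.25% v/v surfactant (post-emerge).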

[3] = system: field corn (Zea mays L., var. Dekalb 535, CORN); test: Post-emerge test, crop safety; settings: post-emerge, 14 days after application, rating scale 0-100
Procedure, shortened: as §1

[4] = system: lambsquarters (Chenopodium album, CHEAL); test: Pre-emerge test, greenhouse herbicide activity screening; settings: pre-emerge, 14 days after application, rating scale 0-100
Procedure, shortened: as §1

[5] = system: johnsongrass (Sorghum halepense, SORHA); test: as above; settings: pre-emerge, 14 days after application, rating scale 0-100
Procedure, shortened: as §1

[6] = system: barnyardgrass (Echinochloa crus-galli, ECHCG); test: as above; settings: pre-emerge, 14 days after application, rating scale 0-100
Procedure, shortened: as §1

[7] = system: ivyleaf morningglory (Ipomoea hederacea, IPOHE); test: as above; settings: pre-emerge, 14 days after application, rating scale 0-100
Procedure, shortened: as §1

[8] = system: green foxtail (Setaria viridis, SETVI); test: as above; settings: pre-emerge, 14 days after application, rating scale 0-100
Procedure, shortened: as §1

[9] = system: sicklepod (Cassia obtusifolia, CASOB); test: as above; settings: pre-emerge, 14 days after application, rating scale 0-100
Procedure, shortened: as §1

[10] = system: velvetleaf (Abutilon theophrasti, ABUTH); test: as above; settings: pre-emerge, 14 days after application, rating scale 0-100
Procedure, shortened: as §1

[11] = system: large crabgrass (Digitaria sanguinalis, DIGSA); test: as above; settings: pre-emerge, 14 days after application, rating scale 0-100
Procedure, shortened: as §1

[12] = system: upland rice (Oryza sp., var. Tebonnet, RICE); test: Pre-emerge test, crop safety; settings: pre-emerge, 14 days after application, rating scale 0-100
Procedure, shortened: (§2)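 Applied at 15–1000 g ai/ha from acetone in 187 l/ha spray volume. Post-emergence applications included 0.25% v/v non-ionic surfactant and reached plants sown 8–21 days before. Pre-emergence applications were incorporated by surface watering. Efficacy or crop damage was rated on a 0–100 scale after 14 days.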

[13] = system: field corn (Zea mays L., var. Dekalb 535, CORN); test: Pre-emerge test, crop safety; settings: pre-emerge, 14 days after application, rating scale 0-100
Procedure, shortened: as §2

[14] = system: lambsquarters (Chenopodium album, CHEAL); test: Post-emerge test, greenhouse herbicide activity screening; settings: post-emerge, 14 days after application, rating scale 0-100
Procedure, shortened: (§3)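 Each test used a mechanized track sprayer delivering 187 l/ha of acetone solution at 15–1000 g ai/ha. Post-emerge foliage at 2–3 leaves was treated with added 0.25% v/v non-ionic surfactant and bottom-watered only. Injury was assessed on day 14, where 100 means total kill.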

[15] = system: johnsongrass (Sorghum halepense, SORHA); test: as above; settings: post-emerge, 14 days after application, rating scale 0-100
Procedure, shortened: as §3

[16] = system: barnyardgrass (Echinochloa crus-galli, ECHCG); test: as above; settings: post-emerge, 14 days after application, rating scale 0-100
Procedure, shortened: as §3

[17] = system: ivyleaf morningglory (Ipomoea hederacea, IPOHE); test: as above; settings: post-emerge, 14 days after application, rating scale 0-100
Procedure, shortened: as §3

[18] = system: green foxtail (Setaria viridis, SETVI); test: as above; settings: post-emerge, 14 days after application, rating scale 0-100
Procedure, shortened: as §3

[19] = system: sicklepod (Cassia obtusifolia, CASOB); test: as above; settings: post-emerge, 14 days after application, rating scale 0-100
Procedure, shortened: as §3

[20] = system: velvetleaf (Abutilon theophrasti, ABUTH); test: as above; settings: post-emerge, 14 days after application, rating scale 0-100
Procedure, shortened: as §3

[21] = system: large crabgrass (Digitaria sanguinalis, DIGSA); test: as above; settings: post-emerge, 14 days after application, rating scale 0-100
Procedure, shortened: as §3

[22] = system: redroot pigweed (Amaranthus retroflexus, AMARE); test: as above; settings: post-emerge, 14 days after application
Procedure, shortened: as §3

[23] = 63 g ai/ha, rating scale 0-100 (0 no damage, 100 complete death)
[24] = 250 g ai/ha, rating scale 0-100

COc1c(Cl)cc(F)c(-n2c(=O)cc(C(F)(F)F)n(C)c2=O)c1SC [Compound 17-1, 3-(4-chloro-6-fluoro-3-methoxy-2-thiomethylphenyl)l-methyl-6-trifluoromethyl-2,4(1H, 3H)-pyrimidinedione]
phytotoxicity rating AMARE ([1]; 63 g ai/ha): 30 | phytotoxicity rating AMARE ([1]; 250 g ai/ha): 90 | Post-emerge Herbicidal Activity RICE (crop damage rating) ([2]; 63 g ai/ha): 0 | Post-emerge Herbicidal Activity RICE (crop damage rating) ([2]; 250 g ai/ha): 0 | Post-emerge Herbicidal Activity CORN (crop damage rating) ([3]; 63 g ai/ha): 0 | Post-emerge Herbicidal Activity CORN (crop damage rating) ([3]; 250 g ai/ha): 5 | phytotoxicity rating CHEAL ([4]; 63 g ai/ha): 90 | phytotoxicity rating CHEAL ([4]; 250 g ai/ha): 100 | phytotoxicity rating SORHA ([5]; 63 g ai/ha): 0 | phytotoxicity rating SORHA ([5]; 250 g ai/ha): 60 | phytotoxicity rating ECHCG ([6]; 63 g ai/ha): 0 | phytotoxicity rating ECHCG ([6]; 250 g ai/ha): 70 | phytotoxicity rating IPOHE ([7]; 63 g ai/ha): 10 | phytotoxicity rating IPOHE ([7]; 250 g ai/ha): 70 | phytotoxicity rating SETVI ([8]; 63 g ai/ha): 50 | phytotoxicity rating SETVI ([8]; 250 g ai/ha): 80 | phytotoxicity rating CASOB ([9]; 63 g ai/ha): 0 | phytotoxicity rating CASOB ([9]; 250 g ai/ha): 80 | phytotoxicity rating ABUTH ([10]; 63 g ai/ha): 95 | phytotoxicity rating ABUTH ([10]; 250 g ai/ha): 100 | phytotoxicity rating DIGSA ([11]; 63 g ai/ha): 20 | phytotoxicity rating DIGSA ([11]; 250 g ai/ha): 80 | phytotoxicity rating RICE ([12]; 63 g ai/ha): 10 | phytotoxicity rating RICE ([12]; 250 g ai/ha): 30 | phytotoxicity rating CORN ([13]; 63 g ai/ha): 0 | phytotoxicity rating CORN ([13]; 250 g ai/ha): 10 | Post-emerge Herbicidal Activity CHEAL (phytotoxicity rating) ([14]; 63 g ai/ha): 30 | Post-emerge Herbicidal Activity CHEAL (phytotoxicity rating) ([14]; 250 g ai/ha): 60 | Post-emerge Herbicidal Activity SORHA (phytotoxicity rating) ([15]; 63 g ai/ha): 0 | Post-emerge Herbicidal Activity SORHA (phytotoxicity rating) ([15]; 250 g ai/ha): 0 | Post-emerge Herbicidal Activity ECHCG (phytotoxicity rating) ([16]; 63 g ai/ha): 0 | Post-emerge Herbicidal Activity ECHCG (phytotoxicity rating) ([16]; 250 g ai/ha): 0 | Post-emerge Herbicidal Activity IPOHE (phytotoxicity rating) ([17]; 63 g ai/ha): 80 | Post-emerge Herbicidal Activity IPOHE (phytotoxicity rating) ([17]; 250 g ai/ha): 80 | Post-emerge Herbicidal Activity SETVI (phytotoxicity rating) ([18]; 63 g ai/ha): 0 | Post-emerge Herbicidal Activity SETVI (phytotoxicity rating) ([18]; 250 g ai/ha): 0 | Post-emerge Herbicidal Activity CASOB (phytotoxicity rating) ([19]; 63 g ai/ha): 20 | Post-emerge Herbicidal Activity CASOB (phytotoxicity rating) ([19]; 250 g ai/ha): 10 | Post-emerge Herbicidal Activity ABUTH (phytotoxicity rating) ([20]; 63 g ai/ha): 70 | Post-emerge Herbicidal Activity ABUTH (phytotoxicity rating) ([20]; 250 g ai/ha): 70 | Post-emerge Herbicidal Activity DIGSA (phytotoxicity rating) ([21]; 63 g ai/ha): 0 | Post-emerge Herbicidal Activity DIGSA (phytotoxicity rating) ([21]; 250 g ai/ha): 0 | Post-emerge Herbicidal Activity AMARE (phytotoxicity rating) [22, 23]: 10 | Post-emerge Herbicidal Activity AMARE (phytotoxicity rating) [22, 24]: 30

CCOC(=O)CC(C)=NNc1c(OC)c(Cl)cc(F)c1-n1c(=O)cc(C(F)(F)F)n(C)c1=O [15-16]
phytotoxicity rating AMARE ([1]; 63 g ai/ha): 100 | phytotoxicity rating AMARE ([1]; 250 g ai/ha): 100 | Post-emerge Herbicidal Activity RICE (crop damage rating) ([2]; 63 g ai/ha): 40 | Post-emerge Herbicidal Activity RICE (crop damage rating) ([2]; 250 g ai/ha): 80 | Post-emerge Herbicidal Activity CORN (crop damage rating) ([3]; 63 g ai/ha): 15 | Post-emerge Herbicidal Activity CORN (crop damage rating) ([3]; 250 g ai/ha): 45 | phytotoxicity rating CHEAL ([4]; 63 g ai/ha): 100 | phytotoxicity rating CHEAL ([4]; 250 g ai/ha): 100 | phytotoxicity rating SORHA ([5]; 63 g ai/ha): 100 | phytotoxicity rating SORHA ([5]; 250 g ai/ha): 100 | phytotoxicity rating ECHCG ([6]; 63 g ai/ha): 80 | phytotoxicity rating ECHCG ([6]; 250 g ai/ha): 100 | phytotoxicity rating IPOHE ([7]; 63 g ai/ha): 90 | phytotoxicity rating IPOHE ([7]; 250 g ai/ha): 100 | phytotoxicity rating SETVI ([8]; 63 g ai/ha): 100 | phytotoxicity rating SETVI ([8]; 250 g ai/ha): 100 | phytotoxicity rating CASOB ([9]; 63 g ai/ha): 90 | phytotoxicity rating CASOB ([9]; 250 g ai/ha): 100 | phytotoxicity rating ABUTH ([10]; 63 g ai/ha): 100 | phytotoxicity rating ABUTH ([10]; 250 g ai/ha): 100 | phytotoxicity rating DIGSA ([11]; 63 g ai/ha): 100 | phytotoxicity rating DIGSA ([11]; 250 g ai/ha): 100 | phytotoxicity rating RICE ([12]; 63 g ai/ha): 90 | phytotoxicity rating RICE ([12]; 250 g ai/ha): 100 | phytotoxicity rating CORN ([13]; 63 g ai/ha): 65 | phytotoxicity rating CORN ([13]; 250 g ai/ha): 100 | Post-emerge Herbicidal Activity CHEAL (phytotoxicity rating) ([14]; 63 g ai/ha): 100 | Post-emerge Herbicidal Activity CHEAL (phytotoxicity rating) ([14]; 250 g ai/ha): 100 | Post-emerge Herbicidal Activity SORHA (phytotoxicity rating) ([15]; 63 g ai/ha): 10 | Post-emerge Herbicidal Activity SORHA (phytotoxicity rating) ([15]; 250 g ai/ha): 70 | Post-emerge Herbicidal Activity ECHCG (phytotoxicity rating) ([16]; 63 g ai/ha): 10 | Post-emerge Herbicidal Activity ECHCG (phytotoxicity rating) ([16]; 250 g ai/ha): 90 | Post-emerge Herbicidal Activity IPOHE (phytotoxicity rating) ([17]; 63 g ai/ha): 100 | Post-emerge Herbicidal Activity IPOHE (phytotoxicity rating) ([17]; 250 g ai/ha): 100 | Post-emerge Herbicidal Activity SETVI (phytotoxicity rating) ([18]; 63 g ai/ha): 30 | Post-emerge Herbicidal Activity SETVI (phytotoxicity rating) ([18]; 250 g ai/ha): 60 | Post-emerge Herbicidal Activity CASOB (phytotoxicity rating) ([19]; 63 g ai/ha): 80 | Post-emerge Herbicidal Activity CASOB (phytotoxicity rating) ([19]; 250 g ai/ha): 100 | Post-emerge Herbicidal Activity ABUTH (phytotoxicity rating) ([20]; 63 g ai/ha): 100 | Post-emerge Herbicidal Activity ABUTH (phytotoxicity rating) ([20]; 250 g ai/ha): 100 | Post-emerge Herbicidal Activity DIGSA (phytotoxicity rating) ([21]; 63 g ai/ha): 20 | Post-emerge Herbicidal Activity DIGSA (phytotoxicity rating) ([21]; 250 g ai/ha): 80 | Post-emerge Herbicidal Activity AMARE (phytotoxicity rating) [22, 23]: 80 | Post-emerge Herbicidal Activity AMARE (phytotoxicity rating) [22, 24]: 100
